# Test results as given in the OPERA property sets (Mansouri et al. 2018).
SMILES,melting point [°C],ready biodegradability,boiling point [°C],log10 vapour pressure (mmHg),log10 Koc (L/kg),log10 Henry constant (atm·m³/mol),log10 Koa
O=[N+]([O-])c1ccc2[nH]cnc2c1,208,not readily biodegradable,,,,,
CCCCCOC(=O)c1ccccc1O,,,270,,,,
O=NN(CCCl)C(=O)NC1CCCCC1,89,,,,,,
Cc1cc(C)c(Br)cc1C,73,,234,,,,
CC(C)N(C(=O)COc1nnc(C(F)(F)F)s1)c1ccc(F)cc1,76,,,-6.17,,,
CC(F)(F)CC(F)(F)F,,,40,,,,
O=C1OC(=O)c2c(Br)c(Br)c(Br)c(Br)c21,275,,,,,,
O=C1c2cccc([N+](=O)[O-])c2C(=O)c2cccc([N+](=O)[O-])c21,385,,,,,,
O=C(O)c1c2ccccc2cc2ccccc12,,,,,2.74,,
O=c1c(O)c(-c2ccc(O)cc2)oc2cc(O)cc(O)c12,277,,,,,,
CC(=O)OCC1=C[C@@H]2OC(=O)C3=COC(O[C@@H]4O[C@H](CO)[C@@H](O)[C@H](O)[C@H]4O)C1C32 (stereo not given in full),132,,,,,,
CC[C@H]1C[N@@]2CC[C@H]1C[C@@H]2[C@@H](O)c1ccnc2ccccc12,268,,,,,,
CCC(C)C1(CC)C(=O)NC(=O)NC1=O (stereo not given),166,,,,,,
C1=CCC(c2ccncc2)CC1 (stereo not given),22.1,,226,,,,
O=C(CBr)OCC=CCOC(=O)CBr,,readily biodegradable,,,,,
c1ccc2c(c1)Cc1ccccc1C2,111,,305,,,,
C=COc1ccccc1,,,156,,,,
CCOc1ccc(C=O)cc1OCC,22,,279,,,,
COc1ccc2c(c1OC)C(=O)O[C@@H]2[C@H]1c2cc3c(cc2CCN1C)OCO3,132,,,,,,
CC(=O)C1CCCCC1,,,180,,,-4.47,
OC[C@H]1O[C@@H](Oc2ccc(O)cc2)[C@H](O)[C@@H](O)[C@@H]1O,200,,,,,,
CN1CC(C(=O)O)CC1=O (stereo not given),152,,,,,,

SMILES,melting point [°C],ready biodegradability,boiling point [°C],log10 vapour pressure (mmHg),log10 Koc (L/kg),log10 Henry constant (atm·m³/mol),log10 Koa
CCOC(C)(OCC)OCC,,,145,,,,
CC(=O)OCCCCOC(C)=O,12,,229,,,,
CCc1oc2ccccc2c1C(=O)c1ccc(O)cc1,124,,,,,,
CCCCCCCCCCCCCCCCCCCCCCCCCCCCCCCCCCCC,76.5,readily biodegradable,,,,,
Oc1cc(F)cc(F)c1F,29,,,,,,
Cc1ccccc1Cc1ccccc1,6.6,,280,,,,
C=CC(=O)OCCOC(=O)C=C,,,,-1.18,,,
O=[N+]([O-])CCO,-80,,194,,,,
CC(C)CO,,readily biodegradable,,1.02,,-5.01,3.93
CCCC(=O)Nc1ccccc1,97,,,,1.71,,
CC(=O)N(CC(C)C(=O)O)c1c(I)cc(I)c(N)c1I (stereo not given),224,,,,,,
CCCOC(=O)CCC(=O)OCCC,-5.9,,251,,,,
NC(N)=Nc1nc(CSCCC(N)=NS(N)(=O)=O)cs1,164,,,,,,
Cc1cccc(NC(=O)c2ccccc2)c1,125,,,,,,
Nc1nc[nH]n1,159,not readily biodegradable,,-6.36,1.25,,
C=C(C)C1CCC=C(C)C1 (stereo not given),,,176,,,,
c1ccc(Nc2ccc(Nc3ccccc3)cc2)cc1,,not readily biodegradable,,-8.2,,,
CC(C)N(C(=O)CCl)c1ccccc1,77,,,-3.64,2.42,,
CCC(=O)CC(=O)CC,,readily biodegradable,,,,,
O=[N+]([O-])c1ccc(Cc2ccncc2)cc1,71,,,,,,
CC(=O)OOC(=O)c1ccccc1,37,,,,,,
CCCCCCCCCCCCCCCC(=O)OC,30,,,-4.33,,,

SMILES,melting point [°C],ready biodegradability,boiling point [°C],log10 vapour pressure (mmHg),log10 Koc (L/kg),log10 Henry constant (atm·m³/mol),log10 Koa
CCCCCCCCCCCF,,,,-0.682,,,
N#CN,44,,,-2.43,,,
Oc1ccc2ccccc2c1Br,84,,,,,,
F[Si](F)(F)c1ccccc1,-18,,102,,,,
O=S(=O)(O)c1ccc(Cl)cc1,67,readily biodegradable,,,,,
CS(=O)(=O)CCCN=C=S,47.5,,,,,,
CCCCNCC(=O)Nc1c(C)cccc1Cl,45.5,,,,,,
OCCCF,,,128,,,,
C=CC1(C)OC(=O)N(c2cc(Cl)cc(Cl)c2)C1=O (stereo not given),108,,,-6.92,2.7,,
CCCCCCCCc1ccc(O)cc1,,not readily biodegradable,,,,,
Cn1ccc(=O)n(C)c1=O,120,,,-2.26,,,
OCCNCCO,28,readily biodegradable,269,-3.55,0.6,,
FC(F)=C(F)F,-142,,-75.9,4.39,,,
C[C@@H](CN)c1ccccc1,,,210,,,,
CCCCS/C(=N\c1cccnc1)SCc1ccc(C(C)(C)C)cc1,32,,,,,,
COc1ccc(CCCC(=O)O)cc1,57.5,,,,,,
Sc1ccc(Br)cc1,73,,230,,,,
CN1C(C)(C)CCCC1(C)C,,,147,,,,
O=S(O)c1ccc(Cl)cc1,99,,,,,,
COc1ccc(CC(C)(C)C)cc1,,,238,,,,
Fc1ccc(Br)cc1,-17.4,,152,,,,
CCCCC(O)C(=O)O (stereo not given),61,,305,-5.5,,,
